From the NIST ThermoML archive (doi:10.1016/j.jct.2013.04.003)
± gives the expanded uncertainty stated by the source.

Settings: 313.15 K; Liquid; Closed cell (Static) method

Row | Compound | vapor or sublimation pressure [kPa]
1 | CC(C)CC(C)(C)C [2,2,4-trimethylpentane] | 12.95 ± 0.031
2 | CCCCO [butan-1-ol] | 2.483 ± 0.015
3 | C=CCCCC [hex-1-ene] | 44.98 ± 0.2
